Results reported in patent US11040947B2, “Substituted quinazolines as matrix metalloproteinase-9 hemopexin domain inhibitors” (The Research Foundation for The State University of New York, priority 2017, dated 2021).

Columns and labels:
[1] = tested on: MMP-9 at the cell surface of HT1080 cells; experiment: MMP-9 cell surface localization, immunofluorescence in HT1080 cells; type: cell-based, Human
Experimental: HT1080 cells were fixed in 4% paraformaldehyde then subsequently incubated with anti-MMP-9 in addition to anti-α4 and/or β1 integrin antibodies to monitor relative levels of localization of these proteins at the cell surface. The cells were counterstained with DAPI nuclear dye.

[2] = molecular target: T1, MMP-9 association with CD44 and EGFR (Homo sapiens, UniProt P14780); experiment: co-immunoprecipitation of endogenous CD44 and EGFR with MMP-9 in HT1080 cells; type: cell-based; settings: 50 μM overnight
T1 construct: expressed in transfected cells; host or cells: HT1080 human fibrosarcoma cells (MMP-9 transfected; CD44 and EGFR endogenous)
T1 sequence (P14780 94-707): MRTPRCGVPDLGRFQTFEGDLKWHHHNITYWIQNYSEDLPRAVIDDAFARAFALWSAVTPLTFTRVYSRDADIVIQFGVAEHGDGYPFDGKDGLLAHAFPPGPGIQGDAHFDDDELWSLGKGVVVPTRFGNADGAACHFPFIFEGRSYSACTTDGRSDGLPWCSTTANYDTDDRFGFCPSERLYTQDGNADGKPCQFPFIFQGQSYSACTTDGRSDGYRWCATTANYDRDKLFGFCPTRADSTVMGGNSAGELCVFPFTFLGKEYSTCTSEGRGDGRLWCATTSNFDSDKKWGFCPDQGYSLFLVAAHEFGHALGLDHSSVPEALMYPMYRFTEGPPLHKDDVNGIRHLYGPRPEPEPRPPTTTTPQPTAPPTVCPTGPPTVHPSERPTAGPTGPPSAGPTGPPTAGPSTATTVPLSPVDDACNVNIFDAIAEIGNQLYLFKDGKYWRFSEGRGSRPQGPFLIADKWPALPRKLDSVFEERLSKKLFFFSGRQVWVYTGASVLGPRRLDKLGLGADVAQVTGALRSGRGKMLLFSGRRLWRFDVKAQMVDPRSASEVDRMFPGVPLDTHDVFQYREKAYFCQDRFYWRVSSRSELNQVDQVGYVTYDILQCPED

[3] = molecular target: T2, APMA-activated recombinant proMMP-9 (Homo sapiens, UniProt P14780); experiment: MMP-9 catalytic activity with fluorogenic peptide; type: biochemical; settings: 10 μM fluorogenic peptide, monitored over 2 hours
T2 construct: made in house
T2 sequence (P14780 107-707 limits assumed): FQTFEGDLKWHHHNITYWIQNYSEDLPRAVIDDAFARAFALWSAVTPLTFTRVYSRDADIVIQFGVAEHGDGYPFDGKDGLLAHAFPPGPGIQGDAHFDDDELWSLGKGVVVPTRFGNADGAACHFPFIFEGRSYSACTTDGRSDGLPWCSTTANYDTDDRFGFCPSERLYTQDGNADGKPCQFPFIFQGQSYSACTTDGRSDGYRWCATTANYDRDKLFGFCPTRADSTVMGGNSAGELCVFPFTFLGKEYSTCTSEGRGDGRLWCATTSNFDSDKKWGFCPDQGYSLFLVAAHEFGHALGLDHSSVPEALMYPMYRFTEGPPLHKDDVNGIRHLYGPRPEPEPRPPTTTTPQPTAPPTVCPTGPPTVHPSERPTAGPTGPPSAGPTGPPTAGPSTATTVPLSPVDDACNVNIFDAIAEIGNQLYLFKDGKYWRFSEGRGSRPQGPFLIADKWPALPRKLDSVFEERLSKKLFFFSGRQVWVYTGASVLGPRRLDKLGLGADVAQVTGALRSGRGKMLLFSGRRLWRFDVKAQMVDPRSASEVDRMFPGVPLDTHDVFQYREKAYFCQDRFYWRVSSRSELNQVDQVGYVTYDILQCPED
Experimental: Recombinant proMMP-9 protein was purified and incubated overnight in a 37° C. water bath in TNC buffer+1 mM APMA to artificially activate the protein.

[4] = tested on: proMMP-9/MMP-2PEX chimera; experiment: tryptophan fluorescence titration with chimera; type: binding
Experimental: A blue shift in proMMP-9 tryptophan fluorescence was monitored to determine the binding affinity of all compounds. Binding of a test compound to MMP-9 was assayed by observing the change of tryptophan emission upon binding. Purified recombinant MMP-9 (50 nmol/L) or MMP-9/MMP-2PEX (50 nmol/L) was diluted in buffer (50 mmol/L Tris-HCl, 60 mmol/L KCl, and 0.05% Tween 20, pH 7.4) in the presence or absence of the test compound. As a control for protein stability and loss, an analogous buffer solution was added to the protein. The protein sample was excited at 280 nm and emission scans were collected from 290 to 400 nm, using slit widths of 0.3 nm on a QM 4/200SE spectrofluorimeter with double excitation and emission monochromators. Three emission scans were collected and averaged at each concentration. The Kd was determined using the Prism software package (GraphPad V5) to fit the data to Equation (Δ). λmax=(λmax^∞×[2])/(Kd+[2]) (A) in which λmax is the wavelength at which maximal fluorescence of the protein was observed.
A chimera of proMMP-9 and MMP-2 in which the MMP-9 PEX domain was replaced by that of MMP-2, (proMMP-9/MMP-2PEX) was tested for analog binding.

[5] = tested on: EGFR-CD44 and EGFR-β1 integrin interaction; experiment: EGFR co-IP assay with CD44 and β1 integrin in HT1080 cells; type: cell-based, Human; settings: 50 μM
Experimental: HT1080 cells were treated with 50 μM 3c, 1a, 1f or DMSO alone. Cell lysates were collected and analyzed by a co-IP assay in which endogenous EGFR was captured with an anti-EGFR antibody and served as an input control. CD44 and β1 integrin were individually probed on the immunoblot.

proMMP-9 [6] = molecular target: T3, proMMP-9 (Homo sapiens, UniProt P14780); experiment: proMMP-9 tryptophan fluorescence blue shift binding assay
T3 construct: Purified recombinant MMP-9 (50 nmol/L) or MMP-9/MMP-2PEX (50 nmol/L) was diluted in buffer
T3 sequence (P14780 20-707 limits assumed): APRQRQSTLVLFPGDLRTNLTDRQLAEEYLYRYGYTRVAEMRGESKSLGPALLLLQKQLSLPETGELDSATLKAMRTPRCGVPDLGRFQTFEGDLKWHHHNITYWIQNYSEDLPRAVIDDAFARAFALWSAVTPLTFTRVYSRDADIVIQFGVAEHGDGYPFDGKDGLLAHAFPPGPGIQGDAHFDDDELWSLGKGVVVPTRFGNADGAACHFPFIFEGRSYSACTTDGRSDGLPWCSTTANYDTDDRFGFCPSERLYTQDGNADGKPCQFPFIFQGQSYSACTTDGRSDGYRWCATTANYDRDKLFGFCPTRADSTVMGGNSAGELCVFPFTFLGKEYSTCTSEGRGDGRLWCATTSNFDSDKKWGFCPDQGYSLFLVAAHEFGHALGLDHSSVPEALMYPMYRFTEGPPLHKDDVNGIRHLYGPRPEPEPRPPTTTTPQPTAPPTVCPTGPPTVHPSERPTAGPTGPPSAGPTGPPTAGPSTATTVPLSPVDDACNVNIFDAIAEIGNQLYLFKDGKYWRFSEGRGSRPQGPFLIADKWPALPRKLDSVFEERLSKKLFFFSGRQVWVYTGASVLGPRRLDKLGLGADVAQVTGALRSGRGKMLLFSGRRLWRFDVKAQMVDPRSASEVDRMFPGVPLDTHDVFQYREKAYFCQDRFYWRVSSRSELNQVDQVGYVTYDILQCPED

HT1080 cells [7] = experiment: chorioallantoic membrane (CAM) assay, angiogenesis; type: in vivo, chicken embryo; settings: 100 μM stock solution (final estimated 0.5 μM), 4-day incubation, vs DMSO and 1f
Experimental: A CAM assay was carried out to evaluate angiogenic and invasive potential of HT1080 cells after treatment with 3c. […] After a 4-day incubation, neovascularization was imaged and quantified.

[8] = tested on: COS-1 cells stably expressing vector control or proMMP-9; experiment: acute cytotoxicity in COS-1 cells; type: cell-based; settings: 50 μM, 24 hours, non-statistically significant
Experimental: Compound 3c was evaluated for acute cytotoxicity. COS-1 cells stably expressing either vector control or proMMP-9 cDNA were treated with 50 μM 3c for 24 hours. As negative and positive controls, cells were treated with DMSO alone or 100 nM staurosporine (STS), an apoptosis inducer, respectively. […] A non-statistically significant 8% decrease in cell growth occurred after treatment with 50 μM of compound 3c. These experiments were repeated in endogenous MMP-9 expressing HT1080 fibrosarcoma cells, which were analyzed for chronic toxicity (cells were re-treated every three days for a total of nine days).

[9] = tested on: proMMP9-mediated migration of COS-1 cells; experiment: two-dimensional dot migration assay, COS-1 cells stably expressing proMMP-9; type: cell-based
Experimental: (§1) To test whether compound 3c is specific for inhibiting only proMMP9-mediated migration, a two-dimensional dot migration assay was performed using COS-1 cells engineered to stably express vector control pQCXIP, proMMP-2, proMMP-9, or proMMP-14 cDNA vectors. An immunoblot was performed to confirm protein expression and proper localization of each MMP (MMP-2/-9 are secreted while MMP-14 is membrane bound).

[10] = tested on: FAK and PAX adhesion junctions in HT1080 cells; experiment: focal adhesion complexes, immunofluorescence in HT1080 cells; type: cell-based, Human; settings: 50 μM overnight
HT1080 cells [11] = experiment: cell adhesion to collagen or fibronectin coated plate; type: cell-based, Human; settings: 37° C. 30 min
Experimental: A 96-well plate was coated with a thin layer of either collagen or fibronectin (5 μg/ml in PBS) substrate before use. HT1080 cells were then seeded onto wells and incubated at 37° C. for 30 min in the presence of various inhibitors. Wells were washed and cells were fixed in 4% paraformaldehyde and stained with DAPI. Images of each 96-well were microscopically captured and counted for the number of cells still adherent to the coated surface using automated computer software.

[12] = tested on: proMMP-2-mediated migration of COS-1 cells; experiment: two-dimensional dot migration assay, COS-1 cells stably expressing proMMP-2; type: cell-based
Experimental: as §1

proMMP-9 [13] = molecular target: T3, proMMP-9; experiment: saturated transfer difference (STD) NMR, proMMP-9; type: binding; settings: saturation of 1.12 ppm resonance
Experimental: As an additional test of binding selectivity, saturated transfer difference (STD) NMR was performed with purified recombinant proMMP-2 and proMMP-9 protein. ProMMP-2 and proMMP-9 are highly similar in structure and function, belonging to the same subfamily of MMPs known as the type IV collagenases and/or gelatinases. Thus proMMP-2 constitutes the best control for testing the selectivity of the PEX-9 inhibitor. Selective saturation of the 1.12 ppm resonance (proMMP-2 and proMMP-9) was used for STD NMR spectra. […] Thus, binding specificity is maintained upon increasing binding affinity.

MMP-9 dimer = molecular target: T4, MMP-9 dimer (Homo sapiens, UniProt P14780); experiment: MMP-9 dimer formation, Myc/HA co-immunoprecipitation in HT1080 cells; type: cell-based; settings: 50 μM overnight, compared to control compound 1f
T4 construct: expressed in transfected cells; host or cells: HT1080 human fibrosarcoma cells
T4 sequence (P14780 94-707): as the sequence (P14780 94-707) above
Text: Human fibroscarcoma HT1080 cells were co-transfected with MMP-9 cDNAs tagged with either a Myc or HA tag as previously reported. […] Using Myc antibody for immunoprecipitation and HA antibody for immunoblotting, the formation of dimeric MMP-9 was monitored.

O=C(CCCSc1nc2c(c(=O)[nH]1)CCCC2)Nc1ccc(F)cc1 [Compound 3c, N-(4-Fluorophenyl)-4-(4-oxo-3,4,5,6,7,8-hexahydroquinazolin-2-ylthio)butanamide]
localization of MMP-9 on the cell surface [1]: loss of MMP-9 from the cell surface | endogenous CD44 and EGFR co-immunoprecipitation [2]: reduced endogenous CD44 and EGFR co-immunoprecipitation | inhibition of MMP-9 catalytic activity [3]: No inhibition of the catalytic activity was observed | shift in fluorescence upon titration with chimera [4]: no shift in fluorescence was observed | interaction between EGFR-CD44 and EGFR-β1 integrin [5]: Decreased interaction between EGFR-CD44 and EGFR-β1 integrin | binding to proMMP-9 relative to parent compound 1a (proMMP-9 [6]; Kd compared with 1a): four times tighter | Kd (proMMP-9 [6]; binding to proMMP-9, tryptophan fluorescence): 320 nM | angiogenic potential of HT1080 cells (neovascularization) (HT1080 cells [7]): significantly reduced the angiogenic potential of HT1080 cells | decrease in cell growth [8]: 8% | effectiveness at inhibiting migration compared with 1a [9]: significantly more effective at inhibiting migration | inhibition of proMMP-9-mediated migration [9]: only inhibited proMMP9-mediated migration | formation of FAK and PAX adhesion junctions [10]: A decrease in the formation of FAK and PAX adhesion junctions | cellular adhesion (HT1080 cells [11]): inhibited cellular adhesion | inhibition of proMMP-2-mediated migration [12]: only inhibited proMMP9-mediated migration | STD NMR peaks in presence of proMMP-9 (proMMP-9 [13]): STD peaks were observed | MMP-9 dimer formation (MMP-9 dimer): significantly blocked MMP-9 dimer formation
